Each molecule was assayed on helminths that were resistant to ivermectine, pyrantel, praziquantel and moxidectine (assay: Treatment of Horse 4 severely infected with resistant parasites). Conditions: Horse 4 severely infected with parasites.
Format: in vivo
Description: Horse 4 was treated with 38 g Asafoetida powder with Arabic gum mixed in milk and with cereal.
With CO/N=C1\C[C@]2(C[C@@H]3C[C@@H](C/C=C(\C)C[C@@H](C)/C=C/C=C4\CO[C@@H]5[C@H](O)C(C)=C[C@@H](C(=O)O3)[C@]45O)O2)O[C@H](/C(C)=C/C(C)C)[C@H]1C [moxidectine] the “result of several treatments” value was “had no result”. O=C(C1CCCCC1)N1CC(=O)N2CCc3ccccc3C2C1 (stereo not shown) [praziquantel] was tested, and the “result of several treatments” value was “had no result”. CN1CCCN=C1/C=C/c1cccs1 [pyrantel] was tested, and the “result of several treatments” value was “had no result”. With ivermectine the “result of several treatments” value was “had no result”.

— patent US8709440B2, “Agent for expelling parasites in humans, animals or birds” (Momentum Animal Cure BVBA, priority 2009, dated 2014)
